Laboratory results reported in patent US20090209617A1, “DULOXETINE SALTS” (priority 2006, published 2009).
Where a name gives a salt, the structure may show the parent alone.

How the values were obtained:
[1] = Stability testing of duloxetine-containing medicinal products (HPLC, mass spectrometry); assay type: physicochemical; conditions: during manufacture of the salt and during shelf-life of the medicinal products prepared from it
Protocol: During the process of stability testing, the identity and concentration of individual impurities present in the medicinal product are determined as the function of time and storage conditions. In the aforementioned tests, generally high-performance liquid chromatography and mass spectrometry are used as analytical methods.
In order to identify the above mentioned impurities, each of them has been separated by high-performance liquid chromatography and their molecular weight was determined by mass spectrometry.
Subsequently, the compound of the Formula (II) has been prepared by the rearrangement of duloxetine hydrobromide in pure form and in good yield and the thus obtained product was subjected to structure elucidation. The identity of the thus obtained (±)-N-methyl-3-(2-thienyl)-3-(4-hydroxy-1-naphtyl)-propylamine of the Formula (II) with the impurity observed during the stability testing has been established using high-performance liquid chromatography and mass spectrometry.
The following sample preparation method has been used during the stability testing of duloxetine-containing medicinals products and assay of duloxetine active ingredients.
(§1) A sample containing approximately 100 mg of duloxetine is thoroughly homogenized in a mortar, weighed with analytical precision and transferred into a suitable volumetric flask. 80 ml of 80:20 volume by volume mixture of water and acetonitrile are added to the sample and the suspension is shaked in an ultrasonic bath for 10 minutes at the temperature of 25° C. The suspension is filtered and completed to 100 ml with the extraction solvent. A 10-μl portion of the thus obtained solution is analyzed by the high-performance liquid chromatographic method of Example 9.

[2] = HPLC assay of the impurity of the Formula (II) in the duloxetine salt obtained; assay type: physicochemical; conditions: rearrangement product of duloxetine, salt as obtained, limit of detection 0.01 percent by weight
Protocol: The limit of detection for the compound of the Formula (II) is a feature of the high-performance liquid chromatographic method used for the assay thereof. Using the chromatographic method disclosed in the present application, said limit of detection is 0.01 percent by weight.
The analysis is carried out using ultraviolet absorption detector under the following chromatographic conditions:
Column, Chiral OD-R, 250*4,6 mm, 10 μm particle size • Flow rate, 1.0 ml/minute • Injection volume, 10 μl • Column temperature, 40° C. • Temperature of sample compartment, 20° C. • Detection wavelength, 220 nm • Mobile phase A: solution of 40 g of sodium hydroxide and 85 ml of concentrated perchloric acid are dissolved in 200 ml of distilled water, pH 2.1 • B: acetonitrile • Eluent composition, isocratic, 55 percent by volume mobile phase A • Analysis time, 30 minutes • Sample concentration, 10 mg/10 ml • Sample solvent, water-acetonitrile 80:20 volume/volume • Needle wash, water-acetonitrile […] volume/volume • Selectivity factor, >4 • Number of theoretical plates, min. 10000 • Asymmetry factor, <2
The assay is carried out according to the requirements of the pharmacopoeia regarding the determination of the impurities.
as §1, with “solvent.” for “solvent. A 10-μl portion of the thus obtained solution is analyzed by the high-performance liquid chromatographic method of Example 9.”

[3] = preparation of salts with strong mineral acids, especially hydrobromic acid; 25 to 50° C.

For `CNCCC(c1cccs1)c1ccc(O)c2ccccc12` (racemic), which melting point is on record?
Its melting point is 190 to 196 °C.

For `CNCCC(Oc1cccc2ccccc12)c1cccs1.O=C(O)C(O)c1ccccc1` (stereo not drawn) [Example 3, (+)-N-methyl-3-(1-naphtyloxy)-3-(2-thienyl)-propylamine(−)-mandelate (1:1)], which “formation of (±)-N-methyl-3-(2-thienyl)-3-(4-hydroxy-1-naphtyl)-propylamine of the Formula (II)” value (shortened to “formation”) [1] is on record?
Its value is “can be detected neither during the manufacture of the above-mentioned particularly preferable salts, nor during the shelf-life”.

What about the “amount of the impurity of the Formula (II) in the product” value (shortened to “amount of the impurity of the Formula”) [2] of the same molecule?
The value was “less than 0.01 percent by weight”.

With `CNCC[C@H](Oc1cccc2ccccc12)c1cccs1` [Example 6, (+)-N-methyl-3-(1-naphtyloxy)-3-(2-thienyl)-propylamine hydrochloride (1:1), reference compound] as the molecule, how does the “amount of the impurity of the Formula” value [2] read?
The value was “approximately 0.05 percent by weight”.

For `CNCC[C@H](Oc1cccc2ccccc12)c1cccs1` [duloxetine, (+)-(S)—N-methyl-3-(1-naphtyloxy)-3-(2-thienyl)-propylamine], which “time in which the compound of the Formula (II) forms” value [3] is on record?
The value was “a few minutes”.

Which “formation” value [1] does the source give for “(+)-N-methyl-3-(1-naphtyloxy)-3-(2-thienyl)-propylamine citrate (1:1) [Example 1]” here?
The value was “can be detected neither during the manufacture of the above-mentioned particularly preferable salts, nor during the shelf-life”.

What about the “amount of the impurity of the Formula” value [2] of the same molecule?
The value was “less than 0.01 percent by weight”.

For “(+)-N-methyl-3-(1-naphtyloxy)-3-(2-thienyl)-propylamine fumarate (1:1) [Example 2]”, which “formation” value [1] is on record?
The value was “can be detected neither during the manufacture of the above-mentioned particularly preferable salts, nor during the shelf-life”.

What about the “amount of the impurity of the Formula” value [2] of the same molecule?
Its value is “less than 0.01 percent by weight”.
